Reference: US20250289808A1 (BenoBio Co., Ltd, priority 2024, published 2025)

Tests used:
BRD2 (BD1) = target: T1, BRD2 (BD1) (Homo sapiens, UniProt P25440); experiment: Binding inhibitory effect on BRD2 protein (AlphaScreen, acetyl-histone H4 peptide); settings: GST-BRD2 (BD1) 100 nM, biotinylated acetyl-histone H4 peptide 100 nM
T1 construct: a bromodomain of BRD2 (BD1) and BRD3 (BD1), one of the BET protein family

[1] = tested on: macular degeneration animal model; experiment: Laser-induced macular degeneration mouse model, FFA and OCT imaging; assay type: in vivo; settings: day 11, compound 0.022 μg/eye, Eylea 20 μg/eye
Experimental: After the mouse was subjected to general anesthesia, the eye was applied with anesthetic eye drops to be subjected to additional local anesthesia and additionally induce mydriasis. A macular degeneration animal model was prepared by destroying the Bruch's membrane by inducing laser burn according to macular degeneration induction conditions. […] On day 11 of macular degeneration induction, the mice were subjected to general anesthesia and then injected intraperitoneally with a fluorescent contrast agent. The mouse was placed on the sacrifice table, lubricating gel was dropped into the corresponding eye, and an OCT lens was brought into contact with the mouse's cornea. Image analysis for fluorescein fundus angiography (FFA) and OCT was performed using the Image-J program.

[2] = tested on: retinal degeneration mouse model; experiment: Electroretinogram (ERG) in blue LED-induced retinal degeneration mouse model; assay type: in vivo, BALB/c mice; settings: compound 24 nM, Eylea 25 mg/kg; for Wavelength enhanced multiple compared to a normal saline-treated group, Average value: average of a-wave and b-wave; for Wavelength enhanced multiple compared to a normal saline-treated group, a-wave / Wavelength enhanced multiple compared to a normal saline-treated group, b-wave: single intravitreal injection 1 hour after LED exposure
BRD3 (BD1) = target: T2, BRD3 (BD1) (Homo sapiens, UniProt Q15059); experiment: Binding inhibitory effect on BRD3 protein (AlphaScreen, same manner as 1-1); settings: same manner as Experimental Example 1-1
T2 construct: a bromodomain of BRD2 (BD1) and BRD3 (BD1), one of the BET protein family; GST
T2 sequence (Q15059 34-140 limits assumed): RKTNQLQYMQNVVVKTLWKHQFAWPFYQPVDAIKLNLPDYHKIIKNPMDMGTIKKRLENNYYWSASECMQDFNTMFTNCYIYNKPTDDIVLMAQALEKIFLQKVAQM

T1 sequence (P25440 74-180 limits assumed): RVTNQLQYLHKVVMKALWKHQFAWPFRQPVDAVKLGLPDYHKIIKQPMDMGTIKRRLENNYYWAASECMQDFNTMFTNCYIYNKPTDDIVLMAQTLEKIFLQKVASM

CC(C)NCc1ccc(-c2ccccc2-c2cccc3c2CN(C)C3=O)o1 [Compound 8, 2-methyl-4-(2-(5-((isopropylamino)methyl)furan-2-yl)phenyl)isoindoline-1-one]
IC50 (BRD2 (BD1)): 16.6 µM

CNC(=O)C1(Cc2ccc(F)cc2)CCN(Cc2ccc(-c3ccccc3-c3cccc4c3CN(C)C4=O)o2)CC1 [Compound 21, 2-methyl-4-(2-(5-(((4-(4-fluorobenzyl)-4′-carboxamidyl)piperidine)methyl)furan-2-yl)phenyl)isoindoline-1-one]
CTF value ([1]; FFA imaging): 251,239 Pixels | Lesion size compared to negative control group ([1]; FFA imaging): 27.29% | Lesion size compared to negative control group ([1]; OCT imaging): 40.79% | Volume of lesion ([1]; OCT imaging): 888,502 μm^3 | Wavelength enhanced multiple compared to a normal saline-treated group, Average value [2]: 2.30 | Wavelength enhanced multiple compared to a normal saline-treated group, a-wave [2]: 2.17 | Wavelength enhanced multiple compared to a normal saline-treated group, b-wave [2]: 2.42

CNC(=O)C1(Cc2ccccc2)CCCN(Cc2ccc(-c3ccccc3-c3cccc4c3CN(C)C4=O)o2)C1 (stereo not shown) [Compound 27]
IC50 (BRD2 (BD1)): 14.1 µM | IC50 (BRD3 (BD1)): 2.54 µM

CN1Cc2c(cccc2-c2ccccc2-c2ccc(COCN3CCC(F)(F)CC3)o2)C1=O [Compound 37, 2-methyl-4-(2-(5-((((4,4-difluoropiperidine-1-yl)methoxy)-3-carboxamidyl)methyl)furan-2-yl)phenyl)isoindoline-1-one]
CTF value ([1]; FFA imaging): 320,028 Pixels | Lesion size compared to negative control group ([1]; FFA imaging): 34.76% | Lesion size compared to negative control group ([1]; OCT imaging): 46.40% | Volume of lesion ([1]; OCT imaging): 1,010,752 μm^3 | Wavelength enhanced multiple compared to a normal saline-treated group, Average value [2]: 1.38 | Wavelength enhanced multiple compared to a normal saline-treated group, a-wave [2]: 1.45 | Wavelength enhanced multiple compared to a normal saline-treated group, b-wave [2]: 1.31

CN1Cc2c(cccc2-c2ccccc2-c2ccc(CN3CCOCC3)o2)C1=O [Compound 13, 2-methyl-4-(2-(5-(morpholinomethyl)furan-2-yl)phenyl)isoindoline-1-one]
CTF value ([1]; FFA imaging): 321,816 Pixels | Lesion size compared to negative control group ([1]; FFA imaging): 34.96% | Lesion size compared to negative control group ([1]; OCT imaging): 57.66% | Volume of lesion ([1]; OCT imaging): 1,256,002 μm^3 | Wavelength enhanced multiple compared to a normal saline-treated group, Average value [2]: 1.33 | Wavelength enhanced multiple compared to a normal saline-treated group, a-wave [2]: 1.29 | Wavelength enhanced multiple compared to a normal saline-treated group, b-wave [2]: 1.36

CN1Cc2c(cccc2-c2ccccc2-c2ccc(CNCc3cnn(C)c3)o2)C1=O [Compound 18, 2-methyl-4-(2-(5-((((1-methyl-1H-pyrazole-4yl)methyl)amino)methyl)furan-2-yl)phenyl)isoindoline-1-one]
CTF value ([1]; FFA imaging): 389,222 Pixels | Lesion size compared to negative control group ([1]; FFA imaging): 42.28% | Lesion size compared to negative control group ([1]; OCT imaging): 45.15% | Volume of lesion ([1]; OCT imaging): 983,477 μm^3 | Wavelength enhanced multiple compared to a normal saline-treated group, Average value [2]: 2.04 | Wavelength enhanced multiple compared to a normal saline-treated group, a-wave [2]: 2.05 | Wavelength enhanced multiple compared to a normal saline-treated group, b-wave [2]: 2.03

CNC(=O)C1(C)CN(Cc2ccc(-c3ccccc3-c3cccc4c3CN(C)C4=O)o2)CCC1O (stereo not shown) [Compound 25]
CTF value ([1]; FFA imaging): 300,650 Pixels | Lesion size compared to negative control group ([1]; FFA imaging): 32.66% | Lesion size compared to negative control group ([1]; OCT imaging): 44.01% | Volume of lesion ([1]; OCT imaging): 958,694 μm^3 | Wavelength enhanced multiple compared to a normal saline-treated group, Average value [2]: 1.27 | Wavelength enhanced multiple compared to a normal saline-treated group, a-wave [2]: 1.52 | Wavelength enhanced multiple compared to a normal saline-treated group, b-wave [2]: 1.01

CNC(=O)CC1C(=O)NCCN1C(=O)c1ccc(-c2ccccc2-c2cccc3c2CN(C)C3=O)o1 (stereo not shown) [Compound 35]
IC50 (BRD2 (BD1)): 12.3 µM | IC50 (BRD3 (BD1)): 1.22 µM

CCC1(C(=O)NC)CCCN(Cc2oc(-c3ccccc3-c3cccc4c3CN(C)C4=O)cc2C)C1 (stereo not shown) [Compound 40]
CTF value ([1]; FFA imaging): 362,456 Pixels | Lesion size compared to negative control group ([1]; FFA imaging): 39.37% | Lesion size compared to negative control group ([1]; OCT imaging): 54.01% | Volume of lesion ([1]; OCT imaging): 1,176,522 μm^3 | Wavelength enhanced multiple compared to a normal saline-treated group, Average value [2]: 1.30 | Wavelength enhanced multiple compared to a normal saline-treated group, a-wave [2]: 1.16 | Wavelength enhanced multiple compared to a normal saline-treated group, b-wave [2]: 1.43

CNC(=O)CC1C(=O)NCCN1Cc1oc(-c2ccccc2-c2cccc3c2CN(C)C3=O)cc1C (stereo not shown) [Compound 42, 2-methyl-4-(2-(5-(3-methyl(N-methyl-2-(3-oxopiperazine-2yl)acetamidyl)methyl)furan-2-yl)phenyl)isoindoline-1-one]
CTF value ([1]; FFA imaging): 381,846 Pixels | Lesion size compared to negative control group ([1]; FFA imaging): 41.48% | Lesion size compared to negative control group ([1]; OCT imaging): 52.86% | Volume of lesion ([1]; OCT imaging): 1,151,561 μm^3 | Wavelength enhanced multiple compared to a normal saline-treated group, Average value [2]: 1.32 | Wavelength enhanced multiple compared to a normal saline-treated group, a-wave [2]: 1.25 | Wavelength enhanced multiple compared to a normal saline-treated group, b-wave [2]: 1.38

CNC(=O)C1(Cc2ccc(F)cc2)CCN(Cc2oc(-c3ccccc3-c3cccc4c3CN(C)C4=O)cc2C)CC1 [Compound 39, 2-methyl-4-(2-(5-((3-methyl (4-(4-fluorobenzyl)-4′-carboxamidyl)piperidine)methyl)furan-2-yl)phenyl)isoindoline-1-one]
CTF value ([1]; FFA imaging): 252,108 Pixels | Lesion size compared to negative control group ([1]; FFA imaging): 27.38% | Lesion size compared to negative control group ([1]; OCT imaging): 58.10% | Volume of lesion ([1]; OCT imaging): 1,265,636 μm^3 | Wavelength enhanced multiple compared to a normal saline-treated group, Average value [2]: 1.36 | Wavelength enhanced multiple compared to a normal saline-treated group, a-wave [2]: 1.21 | Wavelength enhanced multiple compared to a normal saline-treated group, b-wave [2]: 1.51
